Data taken from patent publication US4554274A, “Nb Quaternary derivatives of ajmaline and isoajmaline, methods and intermediate products in the manufacture of their derivatives and method of using same and pharmaceutical compositions thereof” (priority 1979, dated 1985).
Structures can show the parent of a compound that is named as a salt. Where two headings read alike, the source gives them in different places.

Experiments:
[1] = acute toxicity (LD50) in mice; assay type: in vivo; settings: mouse, in vivo, male NMRI-mice, mortality on 7th day
Method: The acute toxicity of the compounds is determined in male NMRI-mice (body weight range 18-22 g) after oral (p.o.) and intraperitonal (i.p.) administration. The LD50 is defined as that dose in μmol/kg which causes a 50% mortality rate of the test animals on the 7th day after application. The calculation of the LD50 is carried out by probitanalysis (see L. Cavalli-Sforza, Grundbegriffe der Biometric, Gustav Fischer Verlag Stuttgart (1964)).

[2] = tested on: male NMRI-mice; experiment: minimum symptom dose (Campbell and Richter); assay type: in vivo; parameters: key: (*): symptoms already indicating toxic area; settings: i.p., changes in behavior in 2 out of 3 mice
Method: The minimum symptom dose is determined in male NMRI-mice (body weight range 18-22 g) according to the procedure of Campbell and Richter (see D. E. S. Campbell and W. Richter, Acta Pharmacol. Toxicol. 25 (1967), pp. 345-363). The minimum symptom dose is defined as that dose in μmol/kg which after i.p. administration causes changes in behavior in 2 out of 3 mice. The minimum symptom dose is a measure for evaluations undesirable side effects.

[3] = tested on: isolated left atria; experiment: functional refractory period (FRP) and contraction force (CF) in isolated left atria, double stimulus method of Govier; parameters: species or system female guinea pigs; settings: for ratio between contraction force-reducing dose and functional refractory period-prolonging dose: CF/FRP, indication of therapeutic range, 18 min; for EC (FRP prolonged to 125%) / IC25: Cavia porcellus, 0.3 h, isolated left atria of guinea pig, 18 minutes after application; for EC (FRP prolonged to 125%): read-out: concentration prolonging functional refractory period (FRP) to 125% of starting value; for IC25: read-out: concentration reducing contraction force (CF) to 75% of starting value
Method: The prolongation of the functional refractory period (FRP) and the contraction force (CF) in the isolated left atria of female guinea pigs (albinopirbright-white guinea pigs, body weight range 300-400 g) are determined according to the double stimulus method of Govier (see W. C. Govier, J. Pharmakol, Exp. Ther. 148 (1965) pp. 100-105). The concentrations which are given in the table below are the concentrations in […] which 18 minutes after application leads to a prolongation of the functional refractory period to 125% or respectively to a reduction of the contraction force to 75% of the starting value. Furthermore the ratio between contraction force-reducing dose and functional refractory period-prolonging dose is given. This ratio is an indication of the therapeutic range of the antiarrhythmic effect on the isolated organ (see K. Greef, Verh. Dtsch. Ges. Kreislaufforsch. 35 (1969) pp. 88-97).

[4] = tested on: male Wista rats (aconitine); experiment: aconitine infusion in rats, heart rhythm disruption (Raschak); assay type: in vivo; settings: 1/20th of the LD50, concurrent aconitine infusion, time difference vs control
Method: To determine the influence of the active ingredient on male Wista rats (weighing 280 to 350 g), infusion with aconitine according to the method of Raschak is carried out (M. Raschak, Arzneim. Forschung (Drug Research) 25 (4) (1975) pp. 639-641). The results are given as the difference (that is, the difference in time as Δ%) between the active substance and a control sample in bringing about a disruption of heart rhythms (extrasystolic (ES), ventricular tachicardiea (VT), chamber flutter (KF)). In the control sample the active ingredient is replaced by a vehicle such as isotonic NaCl-solution or solution medium. The administration of the active ingredient is in a dosage of 1/20th of the LD50 and a constant concurrent infusion per unit of time of aconitine.

| SMILES | LD50 at 168 h ([1]; ip, i.p., read-out: LD50 i.p.) [µmol/kg] | LD50 at 168 h ([1]; po, p.o., read-out: LD50 p.o.) [µmol/kg] | Min. Symptom-dose [2] | ratio between contraction force-reducing dose and functional refractory period-prolonging dose [3] | EC (FRP prolonged to 125%) [3] [µM] | IC25 [3] [µM] | Aconitin-Rat, ES (extrasystolic), Δ % [4] | Aconitin-Rat, KF (chamber flutter), Δ % [4] | Aconitin-Rat, VT (ventricular tachycardia), Δ % [4] |
| --- | --- | --- | --- | --- | --- | --- | --- | --- | --- |
| CCC1C2CC3C4N(C)c5ccc(Br)cc5C45CC(C2C5O)[N+]3(CC)C1O (centres unmarked) [Example 12.b, Nb-ethyl-10-bromo-isoajmalinium hydrogen tartrate] | 122 | 1430 | 21 µmol/kg | 0.9 | 1.5 | 1.4 | +52% | +39% | +55% |
| CCC1C2CC3C4N(C)c5ccc(Br)cc5C45CC(C2C5O)[N+]3(CCN2CCCCC2)C1O (centres unmarked) [Example 9.b, Nb-(2-(1-piperidinyl)ethyl)-10-bromoisoajmalinium bishydrogen tartrate] | 60 | 148 | 31 µmol/kg | 0.7 | 2.3 | 1.4 | +151% | +95% | +52% |
| CCC1C2CC3C4N(C)c5ccc(Br)cc5C45CC(C2C5O)[N+]3(CCCN(CC)CC)C1O (centres unmarked) [Example 19.b, Nb-diethylaminopropyl-10-bromoisoajmalinium bishydrogen tartrate] | 122 | 686 | 31 µmol/kg | 0.5 | 4.4 | 2 | +220% | +158% | +180% |
| CCC1C2CC3C4N(C)c5ccc(Br)cc5C45CC(C2C5O)[N+]3(Cc2ccccc2)C1O (centres unmarked) [Example 16.b, Nb-benzyl-10-bromoisoajmalinium hydrogen tartrate] | 483 | 2280 | (*) | 6.1 | 2.7 | 16.6 | +36% | +31% | +30% |
| CCC1C2CC3C4N(C)c5ccc(Br)cc5C45CC(C2C5O)[N+]3(CCN2CCOCC2)C1O (centres unmarked) [Example 10, Nb-[2-(4-morpholinyl)ethyl]-10-bromoisoajmalinium-chloride] | 45 | 470 | 22 µmol/kg | 12.9 | 0.2 | 2.1 | +67% | +43% | +69% |
| CCCCCCCCCC[N+]12C(O)C(CC)C3CC1C1N(C)c4ccc(Br)cc4C14CC2C3C4O (centres unmarked) [Example 15.b, Nb-decyl-10-bromoisoajmalinium hydrogen tartrate] | 72 | > 1440 | 287 µmol/kg | 4.6 | 24.8 | 113 | n.s. | n.s. | n.s. |
| CCC1C2CC3C4N(C)c5ccc(Br)cc5C45CC(C2C5O)[N+]3(CCN2CCCC2)C1O (centres unmarked) [Example 8.b, Nb-(2-(1-pyrrolidinyl)ethyl)-10-bromoisoajmalinium bishydrogen tartrate] | 115 | 394 | 31 µmol/kg | 2.3 | 0.9 | 2 | +212% | +129% | > +149% |
| CCC[N+]12C(O)C(CC)C3CC1C1N(C)c4ccccc4C14CC2C3C4O (centres unmarked) [Neo-Gilurytmal, Nb -propyl ajmalinium hydrogen tartrate, reference compound] |  |  | 12 µmol/kg |  | 1.8 | 0.26 | +86% | +50% | +80% |
| CCC1C2CC3C4N(C)c5ccc(Br)cc5C45CC(C2C5O)[N+]3(C)C1O (centres unmarked) [Example 11.b, Nb-methyl-10-bromoisoajmalinium hydrogen tartrate] | 190 | 1290 | 88 µmol/kg | 1.3 | 7.2 | 9 | +85% | +52% | +73% |
| CCCC[N+]12C(O)C(CC)C3CC1C1N(C)c4ccc(Br)cc4C14CC2C3C4O (centres unmarked) [Example 14.b, Nb-butyl-10-bromoisoajmalinium hydrogen tartrate] | 76 | 198 | 20 µmol/kg | 0.7 | 2 | 1.5 | +80% | +88% | +87% |
| CCC1C2CC3C4N(C)c5ccc(Br)cc5C45CC(C2C5O)[N+]3(CC(O)c2ccccc2)C1O (centres unmarked) [Example 21, Nb-(2-hydroxy-2-phenylethyl)-10-bromoisoajmalinium hydrogen tartrate] | 250 | 2180 |  | 0.8 | 3.8 | 3.2 | +89% | +72% | +92% |
